Earlier results as cited in patent US10610707B2, “Oral care product for sensitive enamel care” (Colgate-Palmolive Company, priority 2010, dated 2020).

Details: pH below which the compound dissolves, consuming acid

In the case of `O=C([O-])[O-].[Ca+2]` [calcium carbonate], the pH is given as “approximately 8.75”.

In the case of `[O]=[Zn]` [ZnO, Zinc oxide], the pH is given as “approximately 6.95”.
